The IC50 is the midpoint of a concentration-inhibition curve.

Molecules are shown by their SMILES. Like-named read-outs stand apart in the source and are kept apart here. A value given as a limit tells only on which side of the number the result lay.

Holding throughout (assay type): biochemical
One test has as its target T1, MMP-8 (Homo sapiens, UniProt P22894).
T1 construct: purchased Calbiochem 444229
Description: Assay for determining MMP-8 inhibition (fluorescent substrate). The conditions noted are these: activated MMP-8 enzyme; upper bound class. The method, then: The typical assay for MMP-8 activity is carried out in assay buffer comprised of 50 mM Tris, pH 7.5, 150 mM NaCl, 5 mM CaCl2 and 0.05% Brij-35. Different concentrations of tested compounds are prepared in assay buffer in 50 μL aliquots. 10 μL of a 50 nM stock solution of activated MMP-8 enzyme (Calbiochem, Cat. No. 444229) is added to the compound solution. The mixture of enzyme and compound in assay buffer is thoroughly mixed and incubated for 10 min at 37° C. Upon the completion of incubation, the assay is started by addition of 40 μL of a 10 μM stock solution of OmniMMP fluorescent substrate (Biomol, Cat. No. P-126). The time-dependent increase in fluorescence is measured at the 320 nm excitation and 390 nm emission by an automatic plate multireader at 37° C. The IC50 values are calculated from the initial reaction rates.

The next test has as its target T2, MMP-3 (Homo sapiens, UniProt P08254).
T2 construct: stock solution of the catalytic domain of MMP-3 enzyme (Biomol, Cat. No. SE-109); purchased Biomol SE-109
Description: Assay for determining MMP-3 inhibition (fluorescent substrate). Particulars: catalytic domain of MMP-3. The method, then: The typical assay for MMP-3 activity is carried out in assay buffer comprised of 50 mM MES, pH 6.0, 10 mM CaCl2 and 0.05% Brij-35. Different concentrations of tested compounds are prepared in assay buffer in 50 μL aliquots. 10 μL of a […] stock solution of the catalytic domain of MMP-3 enzyme (Biomol, Cat. No. SE-109) is added to the compound solution. The mixture of enzyme and compound in assay buffer is thoroughly mixed and incubated for 10 min at room temperature. Upon the completion of incubation, the assay is started by addition of 40 μL of a 12.5 μM stock solution of NFF-3 fluorescent substrate (Calbiochem, Cat. No. 480-455). The time-dependent increase in fluorescence is measured at the 330 nm excitation and 390 nm emission by an automatic plate multireader. The IC50 values are calculated from the initial reaction rates.

The target in another test is T3, MMP-13 (Homo sapiens, UniProt P45452).
T3 construct: stock solution of catalytic domain of MMP-13 enzyme (produced by Alantos or commercially available from Invitek (Berlin), Cat.# 30100812); purchased Invitek (Berlin) 30100812
The test can be described thus: Assay for determining MMP-13 inhibition (fluorescent substrate). The conditions noted are these: catalytic domain of MMP-13. As to the method: The typical assay for MMP-13 activity is carried out in assay buffer comprised of 50 mM Tris, pH 7.5, 150 mM NaCl, 5 mM CaCl2 and 0.05% Brij-35. Different concentrations of tested compounds are prepared in assay buffer in 50 μL aliquots. 10 μL of a 50 nM stock solution of catalytic domain of MMP-13 enzyme (produced by Alantos or commercially available from Invitek (Berlin), Cat.# 30100812) is added to the compound solution. The mixture of enzyme and compound in assay buffer is thoroughly mixed and incubated for 10 min at room temperature. Upon the completion of incubation, the assay is started by addition of 40 μL of a 12.5 μM stock solution of MMP-13 fluorescent substrate (Calbiochem, Cat. No. 444235). The time-dependent increase in fluorescence is measured at the 320 nm excitation and 390 nm emission by automatic plate multireader. The IC50 values are calculated from the initial reaction rates.

Where [1] appears, read: upper bound class, read-out: MMP-3 inhibition activity (IC50 MMP-3).
[2] abbreviates: upper bound class, read-out: MMP-13 inhibition activity (IC50 MMP-13).

T2 sequence (P08254 100-272 limits assumed): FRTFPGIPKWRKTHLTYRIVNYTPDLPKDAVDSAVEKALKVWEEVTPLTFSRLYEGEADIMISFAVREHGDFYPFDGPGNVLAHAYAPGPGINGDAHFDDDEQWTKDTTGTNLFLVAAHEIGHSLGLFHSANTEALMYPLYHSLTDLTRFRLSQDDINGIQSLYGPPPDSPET
T1 sequence (P22894 101-467): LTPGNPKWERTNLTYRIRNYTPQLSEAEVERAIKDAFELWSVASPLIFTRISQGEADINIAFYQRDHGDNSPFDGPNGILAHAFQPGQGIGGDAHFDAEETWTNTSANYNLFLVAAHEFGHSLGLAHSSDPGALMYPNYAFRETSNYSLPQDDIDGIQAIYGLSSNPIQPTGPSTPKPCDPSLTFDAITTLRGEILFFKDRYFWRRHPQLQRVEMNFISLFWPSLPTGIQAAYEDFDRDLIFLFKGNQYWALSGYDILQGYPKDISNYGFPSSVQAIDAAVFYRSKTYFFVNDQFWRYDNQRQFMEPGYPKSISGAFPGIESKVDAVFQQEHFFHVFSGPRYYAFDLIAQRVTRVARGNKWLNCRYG

On to `Nc1c(N2CCc3ccc(CNC(=O)c4nc5sc6c(c5c(=O)[nH]4)CCC4(C6)OCCO4)cc3C2)c(=O)c1=O` [1/8], for which the IC50 was less than 250 nM on MMP-8, less than 250 nM at MMP-3 (setting [1]) and less than 100 nM on MMP-13 (setting [2]).

Take `Cc1nc(C(=O)NCc2ccc3c(c2)CN(c2c(N)c(=O)c2=O)CC3)[nH]c(=O)c1C` [Example 1/2]: the IC50 on MMP-13 (setting [2]) is less than 100 nM.

In the case of `Cc1csc2nc(C(=O)NCc3ccc4c(c3)CN(c3c(N)c(=O)c3=O)CC4)[nH]c(=O)c12` [Example 1/3], the IC50 against MMP-8 was less than 250 nM; on MMP-3 (setting [1]) it was less than 250 nM; at MMP-13 (setting [2]) it was less than 100 nM.

As for `Nc1c(N2CCc3ccc(CNC(=O)c4ncc(-c5ccc(F)cc5)c(=O)[nH]4)cc3C2)c(=O)c1=O` [Example 1], the IC50 at MMP-3 (range bounds printed with own units (nM to μM), read-out: MMP-3 inhibition activity (IC50 MMP-3), range) lay within 250 to 20000 nM; at MMP-13 (range bounds printed with own units (nM to μM), read-out: MMP-13 inhibition activity (IC50 MMP-13), range), 100 to 20000 nM.

The values above are taken from US20080221128A1, “Metalloprotease inhibitors containing a squaramide moiety” (priority 2007, published 2008).
